Assay results published in BindingDB's records for doi:10.1016/j.ejmech.2014.06.017 (University of Messina, 2014).

Assay: Inhibition of PGPH-like activity of 20S proteasome in human erythrocytes using Z-Leu-Leu-Glu-AMC as substrate by fluorescence assay

Ki [nM]	SMILES
690	CC(C)C[C@H](NC(=O)CCn1ccc2ncccc2c1=O)B(O)O
990	CC(C)C[C@H](NC(=O)Cn1ccc2ccccc2c1=O)B(O)O
240	CC(C)C[C@H](NC(=O)CCn1ccc2ccccc2c1=O)B(O)O
1250	COc1cc2ccn(CCC(=O)N[C@@H](CC(C)C)B(O)O)c(=O)c2cc1OC
310	CC(C)C[C@H](NC(=O)Cn1ccc2ccc(Br)cc2c1=O)B(O)O
2040	CC(C)C[C@H](NC(=O)CCn1ccc2ccc(Br)cc2c1=O)B(O)O
